Measured values reported in publication PMC5529566, “The cryo-EM structure of gastric H^+,K^+-ATPase with bound BYK99, a high-affinity member of K^+-competitive, imidazo[1,2-a]pyridine inhibitors” (Scientific Reports, 2017).

Legend:
H^+,K^+-ATPase Y799F = H^+,K^+-ATPase Y799F (Sus scrofa, UniProt P19156, Y800F); assay: ATPase assay, Y799F mutant
H^+,K^+-ATPase D137L = H^+,K^+-ATPase D137L (Sus scrofa, UniProt P19156, D138L); assay: ATPase assay, D137L mutant
H^+,K^+-ATPase L139A = H^+,K^+-ATPase L139A (Sus scrofa, UniProt P19156, L140A); assay: ATPase assay, L139A mutant
H^+,K^+-ATPase N138I = H^+,K^+-ATPase N138I (Sus scrofa, UniProt P19156, N139I); assay: ATPase assay, N138I mutant
H^+,K^+-ATPase D136A = H^+,K^+-ATPase D136A (Sus scrofa, UniProt P19156, D137A); assay: ATPase assay, D136A mutant
H^+,K^+-ATPase D137F = H^+,K^+-ATPase D137F (Sus scrofa, UniProt P19156, D138F); assay: ATPase assay, D137F mutant
H^+,K^+-ATPase D137I = H^+,K^+-ATPase D137I (Sus scrofa, UniProt P19156, D138I); assay: ATPase assay, D137I mutant
H^+,K^+-ATPase D136I = H^+,K^+-ATPase D136I (Sus scrofa, UniProt P19156, D137I); assay: ATPase assay, D136I mutant
H^+,K^+-ATPase L139F = H^+,K^+-ATPase L139F (Sus scrofa, UniProt P19156, L140F); assay: ATPase assay, L139F mutant
H^+,K^+-ATPase N138A = H^+,K^+-ATPase N138A (Sus scrofa, UniProt P19156, N139A); assay: ATPase assay, N138A mutant
H^+,K^+-ATPase Y140I = H^+,K^+-ATPase Y140I (Sus scrofa, UniProt P19156, Y141I); assay: ATPase assay, Y140I mutant
H^+,K^+-ATPase = H^+,K^+-ATPase (Sus scrofa, UniProt P19156); assay: Dose-dependent inhibition of H^+,K^+-ATPase activity in the presence of 10 mM KCl
Method: Reactions were initiated by incubating at 37 °C using a thermal cycler, and maintained for 1 to 5 h (depending on the activity). Reactions were terminated by withdrawing 40 μL from the 80 μL reactant, and mixing with 80 μL of stop solution comprising 6% ascorbic acid and 2% ammonium molybdate in 1 N HCl, followed by the addition of 120 μL of 2% sodium arsenate, 2% sodium citrate, and 2% acetic acid. The amount of released inorganic phosphate was determined colorimetrically[39] from absorbance at 850 nm by the microplate reader (TECAN).

H^+,K^+-ATPase L141I = H^+,K^+-ATPase L141I (Sus scrofa, UniProt P19156, L142I); assay: ATPase assay, L141I mutant
H^+,K^+-ATPase N138L = H^+,K^+-ATPase N138L (Sus scrofa, UniProt P19156, N139L); assay: ATPase assay, N138L mutant
H^+,K^+-ATPase Y140F = H^+,K^+-ATPase Y140F (Sus scrofa, UniProt P19156, Y141F); assay: ATPase assay, Y140F mutant
H^+,K^+-ATPase A335G = H^+,K^+-ATPase A335G (Sus scrofa, UniProt P19156, A336G); assay: ATPase assay, A335G mutant
H^+,K^+-ATPase L139I = H^+,K^+-ATPase L139I (Sus scrofa, UniProt P19156, L140I); assay: ATPase assay, L139I mutant
H^+,K^+-ATPase Y799A = H^+,K^+-ATPase Y799A (Sus scrofa, UniProt P19156, Y800A); assay: ATPase assay, Y799A mutant
H^+,K^+-ATPase Y140L = H^+,K^+-ATPase Y140L (Sus scrofa, UniProt P19156, Y141L); assay: ATPase assay, Y140L mutant
H^+,K^+-ATPase WT = target: T1, H^+,K^+-ATPase WT (Sus scrofa, UniProt P19156); assay: K^+-competitive inhibition of H^+,K^+-ATPase activity, 96-well ATPase assay, wild-type; format: biochemical, pig
T1 construct: made in house; host or cells: HEK293S GnT1- cells (BacMam baculovirus transduction); permeabilised membrane fractions

H^+,K^+-ATPase D136L = H^+,K^+-ATPase D136L (Sus scrofa, UniProt P19156, D137L); assay: ATPase assay, D136L mutant
H^+,K^+-ATPase Y140A = H^+,K^+-ATPase Y140A (Sus scrofa, UniProt P19156, Y141A); assay: ATPase assay, Y140A mutant
H^+,K^+-ATPase N138F = H^+,K^+-ATPase N138F (Sus scrofa, UniProt P19156, N139F); assay: ATPase assay, N138F mutant
H^+,K^+-ATPase D136F = H^+,K^+-ATPase D136F (Sus scrofa, UniProt P19156, D137F); assay: ATPase assay, D136F mutant
H^+,K^+-ATPase D137A = H^+,K^+-ATPase D137A (Sus scrofa, UniProt P19156, D138A); assay: ATPase assay, D137A mutant

T1 sequence (P19156 whole entry): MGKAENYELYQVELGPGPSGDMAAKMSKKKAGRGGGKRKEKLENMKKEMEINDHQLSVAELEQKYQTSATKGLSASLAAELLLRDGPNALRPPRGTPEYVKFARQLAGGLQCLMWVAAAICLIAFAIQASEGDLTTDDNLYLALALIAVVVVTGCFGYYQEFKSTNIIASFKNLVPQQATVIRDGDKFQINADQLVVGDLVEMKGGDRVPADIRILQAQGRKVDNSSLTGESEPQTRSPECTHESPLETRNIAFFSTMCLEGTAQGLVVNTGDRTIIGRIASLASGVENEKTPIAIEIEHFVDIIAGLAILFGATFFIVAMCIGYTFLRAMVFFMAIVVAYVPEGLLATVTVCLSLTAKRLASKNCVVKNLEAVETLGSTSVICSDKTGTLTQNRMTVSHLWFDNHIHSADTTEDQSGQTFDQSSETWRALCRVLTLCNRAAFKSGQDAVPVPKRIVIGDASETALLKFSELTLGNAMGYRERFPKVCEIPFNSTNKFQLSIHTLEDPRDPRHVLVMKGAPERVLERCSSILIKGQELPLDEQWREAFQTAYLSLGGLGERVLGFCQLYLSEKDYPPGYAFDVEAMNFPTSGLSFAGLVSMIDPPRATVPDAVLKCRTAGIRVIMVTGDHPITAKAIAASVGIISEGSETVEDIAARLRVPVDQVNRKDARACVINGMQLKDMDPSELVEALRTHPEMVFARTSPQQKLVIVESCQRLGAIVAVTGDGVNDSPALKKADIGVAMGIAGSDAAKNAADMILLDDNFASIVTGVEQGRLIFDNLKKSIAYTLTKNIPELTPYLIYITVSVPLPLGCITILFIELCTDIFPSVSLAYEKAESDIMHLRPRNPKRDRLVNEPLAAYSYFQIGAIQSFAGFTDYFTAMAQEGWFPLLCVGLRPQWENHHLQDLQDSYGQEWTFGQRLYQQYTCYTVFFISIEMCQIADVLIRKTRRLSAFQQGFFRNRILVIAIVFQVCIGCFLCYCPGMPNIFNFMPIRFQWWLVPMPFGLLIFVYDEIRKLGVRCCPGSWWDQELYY
T1 sequence (P18434 whole entry partner): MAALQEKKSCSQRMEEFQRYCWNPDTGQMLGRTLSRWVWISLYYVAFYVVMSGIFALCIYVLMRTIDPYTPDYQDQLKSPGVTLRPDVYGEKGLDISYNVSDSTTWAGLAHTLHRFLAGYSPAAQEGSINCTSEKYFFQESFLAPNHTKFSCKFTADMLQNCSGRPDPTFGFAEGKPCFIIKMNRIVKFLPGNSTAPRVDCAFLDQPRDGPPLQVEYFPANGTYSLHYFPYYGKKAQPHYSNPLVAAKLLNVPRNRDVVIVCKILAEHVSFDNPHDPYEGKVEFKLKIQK
Sequence of H^+,K^+-ATPase A335G (P19156 whole entry A336G): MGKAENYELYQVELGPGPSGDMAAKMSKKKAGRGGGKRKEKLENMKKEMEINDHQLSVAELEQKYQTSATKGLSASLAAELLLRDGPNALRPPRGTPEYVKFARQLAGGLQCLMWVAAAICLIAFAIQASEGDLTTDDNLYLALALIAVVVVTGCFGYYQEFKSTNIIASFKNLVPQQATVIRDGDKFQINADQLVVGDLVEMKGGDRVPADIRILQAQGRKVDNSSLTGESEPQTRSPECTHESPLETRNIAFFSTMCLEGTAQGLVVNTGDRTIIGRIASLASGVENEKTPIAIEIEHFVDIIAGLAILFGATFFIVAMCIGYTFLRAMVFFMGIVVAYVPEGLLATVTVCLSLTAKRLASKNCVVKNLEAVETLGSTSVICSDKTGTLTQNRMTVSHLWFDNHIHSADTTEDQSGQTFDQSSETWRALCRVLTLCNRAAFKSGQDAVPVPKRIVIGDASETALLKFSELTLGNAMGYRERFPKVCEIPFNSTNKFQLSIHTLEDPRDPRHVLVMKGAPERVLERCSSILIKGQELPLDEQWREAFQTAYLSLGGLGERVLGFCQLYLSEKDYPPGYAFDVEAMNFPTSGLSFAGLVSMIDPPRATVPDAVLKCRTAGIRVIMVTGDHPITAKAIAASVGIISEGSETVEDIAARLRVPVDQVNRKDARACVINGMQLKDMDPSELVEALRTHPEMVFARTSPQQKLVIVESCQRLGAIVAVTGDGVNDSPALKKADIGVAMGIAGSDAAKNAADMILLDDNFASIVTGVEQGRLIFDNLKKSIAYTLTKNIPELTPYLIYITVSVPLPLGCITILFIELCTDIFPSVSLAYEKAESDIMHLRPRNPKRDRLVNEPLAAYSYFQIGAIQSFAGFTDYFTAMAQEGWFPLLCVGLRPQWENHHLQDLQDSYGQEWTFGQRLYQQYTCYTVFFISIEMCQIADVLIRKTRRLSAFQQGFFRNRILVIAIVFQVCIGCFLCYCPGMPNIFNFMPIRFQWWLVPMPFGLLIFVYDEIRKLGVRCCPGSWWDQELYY
Sequence of H^+,K^+-ATPase A335G (P18434 whole entry partner): as the sequence (P18434 whole entry partner) above
Sequence of H^+,K^+-ATPase L139F (P19156 whole entry L140F): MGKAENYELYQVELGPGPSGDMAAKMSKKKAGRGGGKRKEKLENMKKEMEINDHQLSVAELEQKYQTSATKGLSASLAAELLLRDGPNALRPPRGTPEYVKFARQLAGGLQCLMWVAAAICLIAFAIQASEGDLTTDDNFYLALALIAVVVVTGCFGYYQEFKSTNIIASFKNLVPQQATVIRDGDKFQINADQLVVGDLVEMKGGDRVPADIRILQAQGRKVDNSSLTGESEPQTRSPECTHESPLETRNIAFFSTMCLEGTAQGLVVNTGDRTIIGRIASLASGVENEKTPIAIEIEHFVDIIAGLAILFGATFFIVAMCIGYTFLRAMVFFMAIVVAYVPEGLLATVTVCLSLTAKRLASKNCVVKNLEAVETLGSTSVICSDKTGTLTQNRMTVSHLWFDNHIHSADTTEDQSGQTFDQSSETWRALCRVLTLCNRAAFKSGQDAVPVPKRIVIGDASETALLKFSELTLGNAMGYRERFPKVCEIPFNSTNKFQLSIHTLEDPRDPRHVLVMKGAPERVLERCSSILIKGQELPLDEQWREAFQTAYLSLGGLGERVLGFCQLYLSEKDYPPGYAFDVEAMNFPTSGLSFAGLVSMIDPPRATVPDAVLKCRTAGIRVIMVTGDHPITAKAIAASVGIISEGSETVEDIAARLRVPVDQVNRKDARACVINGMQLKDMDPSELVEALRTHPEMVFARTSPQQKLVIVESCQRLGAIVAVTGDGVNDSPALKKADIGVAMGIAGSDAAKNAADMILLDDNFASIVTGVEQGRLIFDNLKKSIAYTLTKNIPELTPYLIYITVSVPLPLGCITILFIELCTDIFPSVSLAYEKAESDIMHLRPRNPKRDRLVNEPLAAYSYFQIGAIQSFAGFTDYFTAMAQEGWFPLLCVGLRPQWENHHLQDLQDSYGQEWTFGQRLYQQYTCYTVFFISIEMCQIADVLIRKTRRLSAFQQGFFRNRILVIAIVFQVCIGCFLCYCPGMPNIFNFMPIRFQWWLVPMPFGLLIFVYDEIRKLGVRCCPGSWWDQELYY
Sequence of H^+,K^+-ATPase L139F (P18434 whole entry partner): as the sequence (P18434 whole entry partner) above
Sequence of H^+,K^+-ATPase N138I (P19156 whole entry N139I): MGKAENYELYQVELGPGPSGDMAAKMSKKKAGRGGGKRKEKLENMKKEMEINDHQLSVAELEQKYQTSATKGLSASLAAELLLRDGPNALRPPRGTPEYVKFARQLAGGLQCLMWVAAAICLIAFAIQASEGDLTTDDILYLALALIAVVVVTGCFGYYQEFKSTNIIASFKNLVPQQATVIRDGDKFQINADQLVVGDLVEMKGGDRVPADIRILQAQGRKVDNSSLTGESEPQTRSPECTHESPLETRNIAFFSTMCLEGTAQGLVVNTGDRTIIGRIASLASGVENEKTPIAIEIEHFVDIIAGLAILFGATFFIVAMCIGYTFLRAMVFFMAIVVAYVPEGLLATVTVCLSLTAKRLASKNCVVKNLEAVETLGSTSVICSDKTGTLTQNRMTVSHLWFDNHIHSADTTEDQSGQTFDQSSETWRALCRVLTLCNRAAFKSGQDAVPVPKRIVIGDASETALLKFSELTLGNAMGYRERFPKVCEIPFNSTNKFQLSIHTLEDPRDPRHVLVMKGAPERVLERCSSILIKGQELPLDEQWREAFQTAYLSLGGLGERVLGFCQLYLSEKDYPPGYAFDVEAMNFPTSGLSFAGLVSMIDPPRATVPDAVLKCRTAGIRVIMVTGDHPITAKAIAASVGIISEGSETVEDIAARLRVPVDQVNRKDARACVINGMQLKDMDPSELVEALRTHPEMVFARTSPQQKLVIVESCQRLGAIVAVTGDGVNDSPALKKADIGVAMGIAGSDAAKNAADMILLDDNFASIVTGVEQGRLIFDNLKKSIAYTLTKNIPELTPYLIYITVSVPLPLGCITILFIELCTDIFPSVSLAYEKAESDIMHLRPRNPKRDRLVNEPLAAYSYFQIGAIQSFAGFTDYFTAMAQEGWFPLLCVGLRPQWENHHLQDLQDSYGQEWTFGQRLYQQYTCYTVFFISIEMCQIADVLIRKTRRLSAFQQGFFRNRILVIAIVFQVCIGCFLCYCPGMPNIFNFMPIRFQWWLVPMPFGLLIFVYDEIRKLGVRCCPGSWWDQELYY
Sequence of H^+,K^+-ATPase N138I (P18434 whole entry partner): as the sequence (P18434 whole entry partner) above

## Cc1nc2c3c(ccn2c1C)[C@@H](O)[C@H](O)[C@@H](c1ccccc1)N3C [BYK73]
H^+,K^+-ATPase Y799F
  Ki: 21 ± 2.7 µM
H^+,K^+-ATPase Y799F; Y799F
  -fold increase in K i compared with wild-type: 4.3 fold
H^+,K^+-ATPase D137L
  Ki: > 100 µM
H^+,K^+-ATPase D137L; D137L
  -fold increase in K i compared with wild-type: > 20 fold
H^+,K^+-ATPase L139A
  Ki: 5.8 ± 0.6 µM
H^+,K^+-ATPase L139A; L139A
  -fold increase in K i compared with wild-type: 1.2 fold
H^+,K^+-ATPase N138I
  Ki: 62 ± 17 µM
H^+,K^+-ATPase N138I; N138I
  -fold increase in K i compared with wild-type: 13 fold
H^+,K^+-ATPase D136A
  Ki: 9 ± 0.5 µM
H^+,K^+-ATPase D136A; D136A
  -fold increase in K i compared with wild-type: 1.8 fold
H^+,K^+-ATPase D137F
  Ki: 110 ± 10 µM
H^+,K^+-ATPase D137F; D137F
  -fold increase in K i compared with wild-type: 22 fold
H^+,K^+-ATPase D137I
  Ki: 32 ± 5 µM
H^+,K^+-ATPase D137I; D137I
  -fold increase in K i compared with wild-type: 6.5 fold
H^+,K^+-ATPase D136I
  Ki: 6.7 ± 0.4 µM
H^+,K^+-ATPase D136I; D136I
  -fold increase in K i compared with wild-type: 1.4 fold
H^+,K^+-ATPase L139F
  Ki: 8.9 ± 0.7 µM
H^+,K^+-ATPase L139F; L139F
  -fold increase in K i compared with wild-type: 1.8 fold
H^+,K^+-ATPase N138A
  Ki: 6.6 ± 0.8 µM
H^+,K^+-ATPase N138A; N138A
  -fold increase in K i compared with wild-type: 1.3 fold
H^+,K^+-ATPase Y140I
  Ki: 4 ± 0.5 µM
H^+,K^+-ATPase Y140I; Y140I
  -fold increase in K i compared with wild-type: 0.8 fold
H^+,K^+-ATPase
  IC50: 29 µM
H^+,K^+-ATPase L141I
  Ki: 3.9 ± 0.8 µM
H^+,K^+-ATPase L141I; L141I
  -fold increase in K i compared with wild-type: 0.8 fold
H^+,K^+-ATPase N138L
  Ki: > 100 µM
H^+,K^+-ATPase N138L; N138L
  -fold increase in K i compared with wild-type: > 20 fold
H^+,K^+-ATPase Y140F
  Ki: 7.6 ± 0.5 µM
H^+,K^+-ATPase Y140F; Y140F
  -fold increase in K i compared with wild-type: 1.6 fold
H^+,K^+-ATPase A335G
  Ki: 0.078 ± 0.006 µM
H^+,K^+-ATPase A335G; A335G
  -fold increase in K i compared with wild-type: 0.016 fold
H^+,K^+-ATPase A335G; A335G vs WT
  fold increased affinity: more than 60 fold
H^+,K^+-ATPase L139I
  Ki: 1.7 ± 0.2 µM
H^+,K^+-ATPase L139I; L139I
  -fold increase in K i compared with wild-type: 0.3 fold
H^+,K^+-ATPase Y799A
  Ki: > 200 µM
H^+,K^+-ATPase Y799A; Y799A
  -fold increase in K i compared with wild-type: > 40 fold
H^+,K^+-ATPase Y140L
  Ki: 6.5 ± 0.6 µM
H^+,K^+-ATPase Y140L; Y140L
  -fold increase in K i compared with wild-type: 1.3 fold
H^+,K^+-ATPase WT; WT
  -fold increase in K i compared with wild-type: 1.0 fold
H^+,K^+-ATPase WT; WT enzyme
  fold lower affinity compared with BYK99: 1000 fold
H^+,K^+-ATPase WT; WT, global fitting, mean ± SEM
  Ki: 4.9 ± 0.4 µM
H^+,K^+-ATPase D136L
  Ki: 3.2 ± 0.2 µM
H^+,K^+-ATPase D136L; D136L
  -fold increase in K i compared with wild-type: 0.7 fold
H^+,K^+-ATPase Y140A
  Ki: 14 ± 2 µM
H^+,K^+-ATPase Y140A; Y140A
  -fold increase in K i compared with wild-type: 2.9 fold
H^+,K^+-ATPase N138F
  Ki: > 100 µM
H^+,K^+-ATPase N138F; N138F
  -fold increase in K i compared with wild-type: > 20 fold
H^+,K^+-ATPase D136F
  Ki: 4 ± 0.2 µM
H^+,K^+-ATPase D136F; D136F
  -fold increase in K i compared with wild-type: 0.8 fold
H^+,K^+-ATPase D137A
  Ki: 120 ± 30 µM
H^+,K^+-ATPase D137A; D137A
  -fold increase in K i compared with wild-type: 25 fold
